Measured values from PubChem BioAssay AID1845217 (Molecular Pharmacology Branch, DTP, NCI, 2023).
Values joined by “and” are separate entries in the source; they are usually repeats but may differ in a detail not shown here. Equal entries are not always repeated.

Tested on: VA-ES-BJ tumor spheroid viability
Test: Anticancer human tumor VA-ES-BJ cell line growth inhibition;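 note: spheroids exposed to compounds for seven days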;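 for viability, T/C: percent of DMSO vehicle control viability so 100% = untreated growth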
Settings: spheroids with HUVEC and MSC; for viability, T/C: stronger effect = lower value; active = viability on the fitted dose curve at most 10% of control; inactive = the rest
Outline: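 Complex tumor spheroids combined malignant cells with endothelial cells and mesenchymal stem cells. DNA-damaging drugs and DNA repair inhibitors were tested alone and in combination, at half-log dilutions down from clinical Cmax (top 10 microM if Cmax unknown), 0.25% DMSO final.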

[2H]c1nc(C)nc([2H])c1-c1cc(NC[C@@H](C)c2cccc3c(C(=O)NC)ccnc23)ncn1 + Cn1nnc2c(C(N)=O)ncn2c1=O
> 10000 nM: IC50 (curve of first compound, second compound 1 µM) | IC50 (curve of first compound, second compound 3.16 µM) | IC50 (curve of first compound, second compound 10 µM) | IC50 (curve of first compound, second compound 31.6 µM) | IC50 (curve of first compound, second compound 100 µM)
inactive: viability, T/C (second compound 1 µM, first compound 0.0316 µM) 108% | viability, T/C (second compound 1 µM, first compound 0.1 µM) 105% | viability, T/C (second compound 1 µM, first compound 0.316 µM) 106% | viability, T/C (second compound 1 µM, first compound 1 µM) 94.7% | viability, T/C (second compound 1 µM, first compound 3.16 µM) 95.8% | viability, T/C (second compound 1 µM, first compound 10 µM) 92.5% | viability, T/C (second compound 3.16 µM, first compound 0.0316 µM) 111% | viability, T/C (second compound 3.16 µM, first compound 0.1 µM) 90.1% | viability, T/C (second compound 3.16 µM, first compound 0.316 µM) 90.2% | viability, T/C (second compound 3.16 µM, first compound 1 µM) 91.1% | viability, T/C (second compound 3.16 µM, first compound 3.16 µM) 98.3% | viability, T/C (second compound 3.16 µM, first compound 10 µM) 97% | viability, T/C (second compound 10 µM, first compound 0.0316 µM) 111% | viability, T/C (second compound 10 µM, first compound 0.1 µM) 94.6% | viability, T/C (second compound 10 µM, first compound 0.316 µM) 97.5% | viability, T/C (second compound 10 µM, first compound 1 µM) 101% | viability, T/C (second compound 10 µM, first compound 3.16 µM) 94.1% | viability, T/C (second compound 10 µM, first compound 10 µM) 95.6% | viability, T/C (second compound 31.6 µM, first compound 0.0316 µM) 114% | viability, T/C (second compound 31.6 µM, first compound 0.1 µM) 103% | viability, T/C (second compound 31.6 µM, first compound 0.316 µM) 105% | viability, T/C (second compound 31.6 µM, first compound 1 µM) 99.2% | viability, T/C (second compound 31.6 µM, first compound 3.16 µM) 89.4% | viability, T/C (second compound 31.6 µM, first compound 10 µM) 85.6% | viability, T/C (second compound 100 µM, first compound 0.0316 µM) 103% | viability, T/C (second compound 100 µM, first compound 0.1 µM) 102% | viability, T/C (second compound 100 µM, first compound 0.316 µM) 107% | viability, T/C (second compound 100 µM, first compound 1 µM) 104% | viability, T/C (second compound 100 µM, first compound 3.16 µM) 99.9% | viability, T/C (second compound 100 µM, first compound 10 µM) 96%

COc1ccc([C@@H](O)c2cc(-c3ncnc4cc(N5CCOCC5)ccc34)c(F)cc2Cl)nn1
inactive: viability, T/C (compound 0.0316 µM) 99.7% and 97.1% and 92.4% | viability, T/C (compound 0.1 µM) 113% and 95.6% and 88.6% | viability, T/C (compound 0.316 µM) 71.4% and 65.5% and 79.8% | viability, T/C (compound 1 µM) 45.9% and 32.2% and 52% | viability, T/C (compound 3.16 µM) 17.3% and 11.2% and 21.3%
780 nM and 549 nM and 1080 nM: IC50 (curve of compound)
10.2% and 6.84% and 8.9%: viability, T/C (compound 10 µM)

[2H]c1nc(C)nc([2H])c1-c1cc(NC[C@@H](C)c2cccc3c(C(=O)NC)ccnc23)ncn1 + CC[C@@]1(O)C(=O)OCc2c1cc1n(c2=O)Cc2cc3c(CN(C)C)c(O)ccc3nc2-1
inactive: viability, T/C (second compound 0.003 µM, first compound 0.0316 µM) 101% | viability, T/C (second compound 0.003 µM, first compound 0.1 µM) 95.9% | viability, T/C (second compound 0.003 µM, first compound 0.316 µM) 99.5% | viability, T/C (second compound 0.003 µM, first compound 1 µM) 100% | viability, T/C (second compound 0.003 µM, first compound 3.16 µM) 105% | viability, T/C (second compound 0.003 µM, first compound 10 µM) 100% | viability, T/C (second compound 0.00949 µM, first compound 0.0316 µM) 90.1% | viability, T/C (second compound 0.00949 µM, first compound 0.1 µM) 90.6% | viability, T/C (second compound 0.00949 µM, first compound 0.316 µM) 90.6% | viability, T/C (second compound 0.00949 µM, first compound 1 µM) 92.4% | viability, T/C (second compound 0.00949 µM, first compound 3.16 µM) 87.3% | viability, T/C (second compound 0.00949 µM, first compound 10 µM) 81.6% | viability, T/C (second compound 0.03 µM, first compound 0.0316 µM) 53.3% | viability, T/C (second compound 0.03 µM, first compound 0.1 µM) 48.2% | viability, T/C (second compound 0.03 µM, first compound 0.316 µM) 49.9% | viability, T/C (second compound 0.03 µM, first compound 1 µM) 50.2% | viability, T/C (second compound 0.03 µM, first compound 3.16 µM) 46.4% | viability, T/C (second compound 0.03 µM, first compound 10 µM) 46%
> 10000 nM: IC50 (curve of first compound, second compound 0.003 µM) | IC50 (curve of first compound, second compound 0.00949 µM)
< 31.6 nM: IC50 (curve of first compound, second compound 0.0949 µM) | IC50 (curve of first compound, second compound 0.3 µM)
active: viability, T/C (second compound 0.0949 µM, first compound 0.0316 µM) 9.76% | viability, T/C (second compound 0.0949 µM, first compound 0.1 µM) 8.96% | viability, T/C (second compound 0.0949 µM, first compound 0.316 µM) 7.7% | viability, T/C (second compound 0.0949 µM, first compound 1 µM) 8.02% | viability, T/C (second compound 0.0949 µM, first compound 3.16 µM) 8.96% | viability, T/C (second compound 0.0949 µM, first compound 10 µM) 8.01% | viability, T/C (second compound 0.3 µM, first compound 0.0316 µM) 6.31% | viability, T/C (second compound 0.3 µM, first compound 0.1 µM) 6.82% | viability, T/C (second compound 0.3 µM, first compound 0.316 µM) 5.89% | viability, T/C (second compound 0.3 µM, first compound 1 µM) 5.88% | viability, T/C (second compound 0.3 µM, first compound 3.16 µM) 5.82% | viability, T/C (second compound 0.3 µM, first compound 10 µM) 5.63%
203 nM: IC50 (curve of first compound, second compound 0.03 µM)
